# According to PubChem BioAssay (NCI):
#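 Results reflect a 48-hour exposure of cells in 96-well plates to compound at five concentrations. GI50: concentration for 50% inhibition of growth. TGI marks complete inhibition of growth.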
# Key:
# Test in all cases: NCI tumour cell line growth inhibition, 48 h
# A498 renal = test system: A498 renal
# RPMI-8226 leukemia = test system: RPMI-8226 leukemia
# HOP-92 NSCLC = test system: HOP-92 NSCLC
# HS 578T breast = test system: HS 578T breast
# HT29 colon = test system: HT29 colon
# LOX IMVI melanoma = test system: LOX IMVI melanoma
# MDA-MB-435 = test system: MDA-MB-435
# COLO 205 colon = test system: COLO 205 colon
# NCI/ADR-RES ovarian = test system: NCI/ADR-RES ovarian
# MOLT-4 leukemia = test system: MOLT-4 leukemia
SMILES,TGI (A498 renal) [µM],TGI (RPMI-8226 leukemia) [µM],TGI (HOP-92 NSCLC) [µM],TGI (HS 578T breast) [µM],TGI (HT29 colon) [µM],TGI (LOX IMVI melanoma) [µM],TGI (MDA-MB-435) [µM],TGI (COLO 205 colon) [µM],TGI (NCI/ADR-RES ovarian) [µM],TGI (MOLT-4 leukemia) [µM],GI50 (A498 renal) [µM],GI50 (RPMI-8226 leukemia) [µM],GI50 (HOP-92 NSCLC) [µM],GI50 (HS 578T breast) [µM],GI50 (HT29 colon) [µM],GI50 (MOLT-4 leukemia) [µM],GI50 (LOX IMVI melanoma) [µM],GI50 (MDA-MB-435) [µM],GI50 (COLO 205 colon) [µM],GI50 (NCI/ADR-RES ovarian) [µM]
C=CCOC(OCC=C)/C(Br)=C/C,> 100,> 100,> 100,72.2,62.3,39.5,> 100,52.9,89.2,–,–,–,–,–,–,–,–,–,–,–
CCOC(=O)[C@@]1(C)CC(O)C(=O)N1C (stereo partly specified),–,> 100,> 100,> 100,> 100,> 100,> 100,> 100,> 100,> 100,–,–,–,–,–,–,–,–,–,–
O=C(OC1CN2CCC1CC2)N(c1ccccc1)c1ccccc1 (stereo unspecified),78.5,> 100,> 100,> 100,> 100,> 100,> 100,> 100,> 100,> 100,–,–,–,–,–,–,–,–,–,–
CCCCc1ccc(Nc2nc(Cl)c3c(ncn3C3CC(Oc4ccc(C)cc4)C(COc4ccc(C)cc4)O3)n2)cc1 (stereo unspecified),> 100,> 100,> 100,> 100,> 100,> 100,> 100,> 100,> 100,> 100,–,–,–,–,–,–,–,–,–,–
S=c1nc(N/N=C/c2cccs2)c2cn[nH]c2[nH]1,> 100,62.6,> 100,> 100,> 100,74.6,51.9,> 100,81.7,66,–,–,–,–,–,–,–,–,–,–
CC(=O)O[C@H]1C[C@@H](OC(C)=O)[C@@](C)(O)[C@@H]2[C@@H](OC(C)=O)[C@@]3(O)[C@H](/C=C(/CO)[C@H]4O[C@H]4[C@@H](OC(C)=O)[C@@]12C)OC(=O)[C@@H]3C,> 25,> 25,> 25,> 25,> 25,> 25,> 25,> 25,> 25,> 25,–,–,–,–,–,–,–,–,–,–
COC(=O)C1CCC(=O)N1C(c1cc(OC)c(OC)c(OC)c1)c1cccc2ccccc12 (stereo unspecified),> 100,> 100,> 100,> 100,> 100,> 100,> 100,–,> 100,> 100,–,–,–,–,–,–,–,–,–,–
Cc1cc(Nc2ccc(NS(C)(=O)=O)cc2)c2c(ccc3nccc32)[nH]1,43,40.7,65.6,> 100,89.3,48.4,30.5,35.8,> 100,11.8,–,–,–,–,–,–,–,–,–,–
CCOC(=O)C(=CNC(=S)N=Nc1c(O)[nH]c2ccccc12)C(=O)OCC,> 100,> 100,> 100,> 100,> 100,> 100,> 100,> 100,> 100,> 100,–,–,–,–,–,–,–,–,–,–
CCCCSC1=N/C(=C\c2ccc(N(C)C)cc2)C(=O)N1,40.4,50.2,96.2,92.1,36.8,> 100,> 100,> 100,> 100,> 100,–,–,–,–,–,–,–,–,–,–
CCCCCCCCP(=O)(O)OP(=O)(O)OCC1OC(n2ccc(N)nc2=O)C(O)C1O (stereo unspecified),> 100,> 100,> 100,> 100,> 100,> 100,> 100,> 100,> 100,> 100,–,–,–,–,–,–,–,–,–,–
Cc1ccc(-c2cc[n+]3c(n2)oc2ccccc23)cc1,65.4,54.4,47.3,81.5,–,> 100,57.6,68.5,> 100,31.3,–,–,–,–,–,–,–,–,–,–
CN(C)CCOc1ccc(-c2c(Oc3ccccc3)c(=O)oc3ccccc23)cc1,27,40.8,32.7,35.2,25.4,25.9,21.2,24.7,25,20.5,–,–,–,–,–,–,–,–,–,–
CCOC1NC(=O)Oc2cc3ccccc3cc21 (stereo unspecified),–,> 100,82.8,> 100,> 100,> 100,> 100,> 100,> 100,> 100,–,–,–,–,–,–,–,–,–,–
CCCCc1ccc(Nc2nc(Cl)c3ccn(C4CC(Oc5ccc(C)cc5)C(COc5ccc(C)cc5)O4)c3n2)cc1 (stereo unspecified),> 46.4,> 46.4,> 46.4,> 100,> 46.4,> 46.4,> 46.4,> 46.4,> 46.4,> 46.4,–,–,–,–,–,–,–,–,–,–
CCN(CC)CCn1c(=O)c2c(C)c3oc4ccccc4oc3c(C)c2c1=O,> 100,> 100,> 100,> 100,> 100,> 100,> 100,> 100,> 100,> 100,–,–,–,–,–,–,–,–,–,–

SMILES,TGI (A498 renal) [µM],TGI (RPMI-8226 leukemia) [µM],TGI (HOP-92 NSCLC) [µM],TGI (HS 578T breast) [µM],TGI (HT29 colon) [µM],TGI (LOX IMVI melanoma) [µM],TGI (MDA-MB-435) [µM],TGI (COLO 205 colon) [µM],TGI (NCI/ADR-RES ovarian) [µM],TGI (MOLT-4 leukemia) [µM],GI50 (A498 renal) [µM],GI50 (RPMI-8226 leukemia) [µM],GI50 (HOP-92 NSCLC) [µM],GI50 (HS 578T breast) [µM],GI50 (HT29 colon) [µM],GI50 (MOLT-4 leukemia) [µM],GI50 (LOX IMVI melanoma) [µM],GI50 (MDA-MB-435) [µM],GI50 (COLO 205 colon) [µM],GI50 (NCI/ADR-RES ovarian) [µM]
CCOC(=O)/C=C(\C(=O)OCC)n1cc(Cl)c(=O)n(CC(=O)OCC)c1=O,34.9,4.58,5.28,> 100,38.3,11.2,35.5,1.86,> 93.8,6.05,–,–,–,–,–,–,–,–,–,–
CC(=O)O[C@H]1C(=O)[C@@]2(C)[C@H]([C@H](OC(=O)c3ccccc3)[C@]3(O)C[C@H](OC(=O)[C@H](O)[C@@H](NC(=O)c4ccccc4)c4cccc(N(C)C)c4)C(C)=C1C3(C)C)[C@]1(OC(C)=O)CO[C@@H]1C[C@@H]2O,9.02,0.236,> 75,0.603,> 32.9,> 75,0.0388,0.285,> 62.5,–,–,–,–,–,–,–,–,–,–,–
Cc1cc(OCCOCCC(F)(F)P(=O)(O)O)ccc1CCc1cnc2c(N)nc3cc(CCC(=O)O)ccc3c2c1,> 100,> 100,> 100,> 100,> 100,> 100,> 100,> 100,> 100,> 100,26.2,> 100,6.61,26.6,> 100,> 100,> 100,> 100,> 100,> 100
CN(CCCNC(=O)c1nn(C)c2c1Cc1ccccc1-2)CCCNC(=O)c1nn(C)c2c1Cc1ccccc1-2,31.7,35.9,35,42.1,31.6,21.1,27,30.2,> 68.9,24.4,–,–,–,–,–,–,–,–,–,–
Cc1nc2ccc(F)cc2c(Cl)c1CCCl,> 100,> 100,> 100,> 100,> 100,82.8,82.5,47.2,> 100,98.6,–,–,–,–,–,–,–,–,–,–
O=C(c1cccnc1)N1N=C(c2ccccc2)CC1(O)c1cc(F)c(Cl)cc1Cl (stereo unspecified),–,55.6,59.5,79.5,> 100,30,> 100,31,83.7,> 100,–,–,–,–,–,–,–,–,–,–
CCC(CC)(CO)CNc1cc(Cl)nc(N)n1,> 100,> 100,> 100,> 100,> 100,> 100,> 100,> 100,> 100,> 100,–,–,–,–,–,–,–,–,–,–
C=CC(=O)N1C/C(=C\c2ccc([N+](=O)[O-])cc2)C(=O)/C(=C/c2ccc([N+](=O)[O-])cc2)C1,0.807,> 100,2.98,0.804,< 0.038,0.18,1.36,0.273,4.12,–,–,–,–,–,–,–,–,–,–,–
CCSc1nc(=S)n(-c2ccccc2)c(C)c1C(C)=O,> 100,> 100,> 100,> 100,> 100,> 100,> 100,> 100,> 100,> 100,–,–,–,–,–,–,–,–,–,–
CC(C(=O)c1ccncc1)c1ccccn1 (stereo unspecified),> 100,> 100,> 100,> 100,> 100,> 100,> 100,> 100,> 100,–,–,–,–,–,–,–,–,–,–,–
Nc1ccc2ccc(N3CCNCC3)nc2n1,–,> 100,> 100,> 100,> 100,> 100,> 100,> 100,> 100,> 100,–,–,–,–,–,–,–,–,–,–
COc1ccc(-c2ncn(C[Si](C)(C)C)c2-c2ccc(OC)cc2)cc1,–,4.57,17.5,37.1,10.8,21,13,11.7,29.1,4.22,–,–,–,–,–,–,–,–,–,–
C=C(C)[C@H]1C2=CC(C)=C(O2)[C@@H](O)[C@H](C(=C)C)CCC2=C[C@H]1OC2=O,> 100,> 100,> 100,> 100,–,> 100,> 100,> 100,> 100,> 100,–,–,–,–,–,–,–,–,–,–
COC(=O)c1c2c(cc3c1CC1(Cc4cc5c(c(C(C)=O)c4C1)CCCC5)C3)CCCC2 (stereo unspecified),> 100,87.5,> 100,> 100,> 100,> 100,> 100,> 100,> 100,–,–,–,–,–,–,–,–,–,–,–
CC1(C)C2CCC1C(=O)[C@@]1(C=CC(=O)CC1)C2 (stereo partly specified),–,> 100,> 100,> 100,> 100,> 100,> 100,> 100,> 100,> 100,–,–,–,–,–,–,–,–,–,–
